In PubChem BioAssay AID2633 (Broad Institute, 2010) one finds EC50 data, which are given here for 58 compounds.

Active and inactive are the calls of the source. How the calls were made is not given here.

The test system of this assay is DRD oncogenic fibroblast cytotoxicity, fluorescence viability. As to the kind of experiment: killing of non-viral transformed DRD fibroblasts – cell-based, fluorescence viability readout, dose response (AID 2633).

For orientation: EC50 means the concentration at which the effect is half-maximal. For the compound `Cc1onc(C(=O)N2CCN(C(c3ccccc3)c3ccccc3)CC2)c1[N+](=O)[O-]`, the EC50 is 1300 nM. Then `Nc1nc(CCl)nc(Nc2cccc3ccccc23)n1`, with 660 nM; and `O=C1SC(Cc2ccccc2)C(=O)N1c1ccccc1` (stereo not drawn), with > 6670 nM (inactive). `CCOc1ccc(Nc2nc(N)nc(CCl)n2)cc1`: the EC50 is 575 nM. The result for `COc1ccc(Cc2nc(-c3ccc(NC(=O)c4cccnc4)cc3)no2)cc1` reads > 6670 nM (inactive); that for `O=C(CCl)N=c1sccn1Cc1ccccc1Cl`, 126 nM. For `CC[C@@]1(O)C(=O)OCc2c1cc1n(c2=O)Cc2cc3c(CN(C)C)c(O)ccc3nc2-1`, the EC50 is 820 nM. As to `CC[C@@]1(O)C(=O)OCc2c1cc1n(c2=O)Cc2cc3ccccc3nc2-1`, the EC50 was 454 nM. The result for `CCCCCCCN(C(=O)CCl)c1cccc(C)c1` reads 1090 nM. Then `COc1ccc(N(C(=O)CCl)C(C(=O)NCCc2ccccc2)c2cccs2)cc1Cl` (stereo not drawn), with 25.3 nM; and `C/C(=N\Nc1ncc(Cl)cc1Cl)c1ccccn1`, with 19.6 nM. Then `Cc1ccc(Nc2nc(N)nc(CCl)n2)c(C)c1`, with 499 nM.

On to `Cc1cccc(Nc2nc(N)nc(CCl)n2)c1`, for which the EC50 is 2180 nM. Then `CCc1ccc(/C=C2/SC(=S)N(CCC(=O)Nc3cccnc3)C2=O)cc1`, with > 6670 nM (inactive); and `Cc1ccc(C(=O)Sc2cccccc2=O)cc1`, with 55.4 nM; and `Cc1ccc(/C=C2\SC(=S)N(CCCC(=O)N3CCOCC3)C2=O)cc1`, with > 6670 nM (inactive). The result for `CC[C@H]1CN2CCc3cc(OC)c(OC)cc3[C@@H]2C[C@@H]1C[C@H]1NCCc2cc(OC)c(OC)cc21` reads 9.12 nM; that for `O=C(NCc1cccnc1)c1ccc(NC(=O)c2ccc([N+](=O)[O-])cc2)cc1`, > 6670 nM (inactive). The result for `Cc1cccc(Nc2nc(N)nc(CCl)n2)c1C` reads 568 nM. Consider `CCc1ccc(/C=C2/SC(=S)N(CCC(=O)NCCCN3CCOCC3)C2=O)cc1`, for which the EC50 was 5320 nM.

Turning to `O=C(NCc1cccnc1)c1ccc(NC(=O)c2cccc([N+](=O)[O-])c2)cc1`, the EC50 was > 6670 nM (inactive). As to `COc1ccc(C[C@H]2NC[C@H](O)[C@H]2OC(C)=O)cc1`, the EC50 was 44.7 nM. The result for `CCc1ccc(/C=C2\SC(=S)N(CCC(=O)NCCCN3CCOCC3)C2=O)cc1` reads 4700 nM. In the case of `O=C(CCCCCN1C(=O)c2cccc3cccc(c23)C1=O)NCc1cccnc1`, the EC50 was > 6670 nM (inactive). The result for `COc1cccc(N(C(=O)CCl)C(C(=O)NCCc2ccccc2)c2cccs2)c1` (stereo not drawn) reads 280 nM; that for `CC(=O)Nc1ccc(NC(=O)CN(c2cccc([N+](=O)[O-])c2)S(C)(=O)=O)cc1`, > 6670 nM (inactive); that for `Cc1ccccc1Nc1nc(N)nc(CCl)n1`, 1980 nM. Then `Cc1ccc(N(C(=O)CCl)C(C(=O)NC2CCCCC2)c2cccnc2)cc1C` (stereo not drawn), with 75.6 nM. The result for `COc1ccc(N(C(=O)CCl)C(C(=O)NCCc2ccccc2)c2cccs2)cc1` (stereo not drawn) reads 447 nM; that for `COC(=O)C[C@](O)(CCCC(C)(C)O)C(=O)O[C@@H]1C(OC)=C[C@]23CCCN2CCc2cc4c(cc2[C@H]13)OCO4`, 4.64 nM; that for `COC(=O)[C@@H]1Cc2c([nH]c3ccccc23)C(C)(C)N1C(=O)CCl`, 1010 nM. With `O=C(N/N=C/c1cccnc1)c1ccc(NC(=O)C(c2ccccc2)c2ccccc2)cc1`, the EC50 is > 6670 nM (inactive). For the compound `COc1ccc(C(C(=O)NC2CCCCC2)N(C(=O)CCl)c2cccc(Cl)c2)cc1` (stereo not drawn), the EC50 is 48.6 nM. As to `Oc1ccccc1N=Nc1nc(-c2ccccc2)c(-c2ccccc2)[nH]1`, the EC50 is 378 nM. Then `CC[C@@]1(O)C(=O)OCc2c1cc1n(c2=O)Cc2cc3c(NC(=O)CN)cccc3nc2-1`, with 4610 nM; and `O=C(Cc1ccc([N+](=O)[O-])cc1)N/N=C/c1ccc([N+](=O)[O-])o1`, with > 6670 nM (inactive). The result for `Nc1nc(CCl)nc(Nc2ccc3ccccc3c2)n1` reads 182 nM; that for `CC(C)c1onc(C(=O)N2CCN(C(c3ccccc3)c3ccccc3)CC2)c1[N+](=O)[O-]`, 617 nM; that for `CCN1/C(=C\C=C\C2=[N+](CC)c3ccccc3C2(C)C)C(C)(C)c2ccccc21`, 249 nM.

On to `COc1ccc(-c2nnc(NC(=O)c3ccc(S(=O)(=O)N4CCc5ccccc5C4)cc3)o2)cc1`, for which the EC50 is > 6670 nM (inactive).

With `CC(Oc1ccc(Cl)cc1Cl)c1nc(-c2ccc(NC(=O)c3cccnc3)cc2)no1` (stereo not drawn), the EC50 is > 6670 nM (inactive). The result for `CC(C)C(=O)Nc1ccc(C(=O)NCc2cccnc2)cc1` reads > 6670 nM (inactive); that for `COc1ccc(CN(CCC(c2ccccc2)c2ccc(OC(C)C)cc2)C(=O)CCl)cc1OC` (stereo not drawn), 1480 nM; that for `C=CCOc1ccccc1CN(C(=O)CCl)c1ccc2c(c1)OCO2`, 2430 nM. Then `C=C1C(=O)O[C@@H]2C[C@@H](C)[C@@H]3C=CC(=O)[C@@]3(C)[C@@H](OC(=O)CC(=O)O[C@H]3[C@@H]4C(=C)C(=O)O[C@@H]4C[C@@H](C)[C@@H]4C=CC(=O)[C@]43C)[C@H]12`, with 32.4 nM; and `CCOc1ccc(CC(=O)Nc2ccc(NC(=O)c3ccco3)cc2)cc1OCC`, with > 6670 nM (inactive); and `COc1ccc(S(=O)(=O)N2CCOCC2)cc1NC(=O)CCNC(=O)c1ccc(Br)cc1`, with > 6670 nM (inactive). As to `COc1ccc(/C=N/NC(=O)c2[nH]c3ccc(Br)cc3c2-c2ccccc2)cc1`, the EC50 was 134 nM. Then `COc1ccc(OC)c(Nc2nc(N)nc(CCl)n2)c1`, with 1520 nM; and `CN1CCN(C(=O)CCCN2C(=O)/C(=C/c3cccc(Br)c3)SC2=S)CC1`, with > 6670 nM (inactive). For the compound `O=S(=O)(c1ccc2c(c1)C(=NO)c1cc(S(=O)(=O)N3CCCCC3)ccc1-2)N1CCCCC1`, the 50% effective concentration (EC50) is 2120 nM. On to `COc1ccc(C(C(=O)NC2CCCCC2)N(C(=O)CCl)c2ccc(C)cc2)cc1` (stereo not drawn), for which the EC50 was 737 nM. The result for `Cc1ccc(C2CC(c3cccs3)=NN2C(=O)CCl)cc1` (stereo not drawn) reads 1420 nM; that for `Cc1cccc(OCC(=O)Nc2ccc(C(=O)NCc3cccnc3)cc2)c1`, > 6670 nM (inactive).

With `O=C(COc1ccc(Cl)cc1)Nc1ccc(C(=O)NCc2cccnc2)cc1`, the EC50 was > 6670 nM (inactive). Then `Cc1cccnc1Nc1nc(-c2ccccn2)cs1`, with 428 nM; and `CC[C@@]1(O)C(=O)OCc2c1cc1n(c2=O)Cc2cc3c(N)cccc3nc2-1`, with 129 nM.

As to `CC1=CC(=O)C=C(C)C1=NOc1ccccc1[N+](=O)[O-]`, the EC50 was > 6670 nM (inactive).
